pIC50: −log10 of the molar value.

Holding throughout (format): biochemical
One test addresses FBXL10 (Homo sapiens (Human), UniProt Q8NHM5). Put plainly: FBXL10 in vitro enzyme inhibition assay (AlphaScreen). Conditions: 0.3 nM FBXL10, H3K36me2-biotin peptide. An excerpt: (§1) This assay determines the ability of a test compound to inhibit FBXL11, FBXL10, and PHF8 demethylase activity. Baculovirus expressed FBXL11 (GenBank Accession #NM_012308, AA1-1162) was purchased from BPS Bioscience (Cat#50102). Baculovirus expressed FBXL10 (GenBank Accession #NM_032590, AA 1-650) was purchased from BPS Bioscience (Cat #50120). Baculovirus expressed PHF8 (GenBank Accession NP_055922.1) was purchased from Active Motif (Cat#31435).
(§2) The ability of test compounds to inhibit the activity of FBXL10 was determined in 384-well plate format under the following reaction conditions: 0.3 nM FBXL10, 30 nM H3K36me2-biotin labeled peptide (Anaspec cat #64442), 0.2 μM alpha-ketoglutaric acid in assay buffer of 50 mM HEPES, pH7.3, 0.005% Brij35, 0.5 mM TCEP, 0.2 mg/ml BSA, 50 μM sodium L-ascorbate, 5 μM ammonium iron(II) sulfate. Reaction product is determined quantitatively by AlphaScreen detection after the addition of detection reagents anti-H3K36me1 antibody, AlphaScreen® Streptavidin-coated Donor beads, and AlphaScreen® Protein A Acceptor beads in 50 mM HEPES, pH7.3, 10 mM NaCl, 0.005% Brij35, 5 mM EDTA, 2 mg/ml BSA to final 10 μg/ml beads.
(§3) The assay reaction was initiated by the following: 3 μl of the mixture of 90 nM H3K36me2-biotin labeled peptide and 0.6 μM alpha-ketoglutaric acid with 3 μl of 11-point serial diluted inhibitor in 3% DMSO are added to each well of 384 well Proxiplate (Perkin Elmer), followed by the addition of 3 μl of 0.9 nM FBXL10 to initiate the reaction. The reaction mixture is incubated at room temperature for 1 hour, and terminated by the addition of 3 μl of appropriate dilution of anti H3K36me1 antibody in 50 mM HEPES, pH7.3, 10 mM NaCl, 0.005% Brij35, 5 mM EDTA, 2 mg/ml BSA. Plates will then incubated at room temperature for 40 minutes, followed by addition of 3 ul of 50 μg/ml AlphaScreen® Streptavidin-coated Donor beads and AlphaScreen® Protein A Acceptor beads in 50 mM HEPES, pH7.3, 10 mM NaCl, 0.005% Brij35, 5 mM EDTA, 2 mg/ml BSA. Plates will then be read by EnVision Multilabel Reader in AlphaScreen mode after minimum 2 hour incubation at room temperature. The AlphaScreen signal for each well is used to determine inhibition constant (IC50).
(§4) The ability of the compounds disclosed herein to inhibit demethylase activity was quantified and the respective IC50 value was determined.
(In general: Alpha assays give light when donor and acceptor beads are brought close together.)

The target in a further test is FBXL11 (Homo sapiens (Human), UniProt Q9Y2K7). As to the kind of experiment: FBXL11 in vitro enzyme inhibition assay (AlphaScreen). The conditions noted are these: 0.15 nM FBXL11, H3K36me2-biotin peptide.
FBXL11, sequence (Q9Y2K7 whole entry): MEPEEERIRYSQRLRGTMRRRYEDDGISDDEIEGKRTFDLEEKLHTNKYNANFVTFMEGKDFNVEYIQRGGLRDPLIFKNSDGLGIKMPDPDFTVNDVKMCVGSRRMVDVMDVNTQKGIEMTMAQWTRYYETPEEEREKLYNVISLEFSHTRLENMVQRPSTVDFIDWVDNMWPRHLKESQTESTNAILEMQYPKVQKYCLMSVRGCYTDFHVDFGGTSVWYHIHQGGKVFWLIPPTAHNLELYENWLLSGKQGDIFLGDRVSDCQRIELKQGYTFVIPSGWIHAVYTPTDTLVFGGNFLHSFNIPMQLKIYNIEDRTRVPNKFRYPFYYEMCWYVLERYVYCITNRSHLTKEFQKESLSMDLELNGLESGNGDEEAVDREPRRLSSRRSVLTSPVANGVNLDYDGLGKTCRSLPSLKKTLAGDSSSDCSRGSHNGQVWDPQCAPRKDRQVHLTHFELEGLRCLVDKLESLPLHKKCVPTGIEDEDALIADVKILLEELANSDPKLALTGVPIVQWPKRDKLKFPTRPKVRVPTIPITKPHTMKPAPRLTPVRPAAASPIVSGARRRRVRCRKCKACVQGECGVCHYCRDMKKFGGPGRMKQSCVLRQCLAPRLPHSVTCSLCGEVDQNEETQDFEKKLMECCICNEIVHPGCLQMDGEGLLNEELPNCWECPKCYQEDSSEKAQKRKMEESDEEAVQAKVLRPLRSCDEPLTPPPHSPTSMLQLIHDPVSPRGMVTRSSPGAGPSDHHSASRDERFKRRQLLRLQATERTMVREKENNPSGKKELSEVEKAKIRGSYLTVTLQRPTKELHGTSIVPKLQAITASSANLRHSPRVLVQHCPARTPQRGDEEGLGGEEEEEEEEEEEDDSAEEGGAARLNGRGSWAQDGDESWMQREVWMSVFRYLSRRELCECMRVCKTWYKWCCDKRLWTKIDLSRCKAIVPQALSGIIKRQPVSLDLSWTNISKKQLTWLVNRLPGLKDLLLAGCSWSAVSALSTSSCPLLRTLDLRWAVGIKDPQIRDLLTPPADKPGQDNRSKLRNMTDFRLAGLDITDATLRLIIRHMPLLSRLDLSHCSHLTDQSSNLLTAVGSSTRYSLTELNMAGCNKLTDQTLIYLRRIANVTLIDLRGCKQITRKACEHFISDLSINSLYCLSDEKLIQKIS
Source text: as §1
as §2, with “FBXL11” for “FBXL10”, “0.15” for “0.3”, “FBXL11,” for “FBXL10,”
as §3, with “0.45” for “0.9”, “FBXL11” for “FBXL10”
The ability of the compounds disclosed herein to inhibit demethylase activity was quantified and the respective IC50 value was determined. Table 3 provides the IC50 values of various compounds disclosed herein.

A further test concerns the target PHF8 (Homo sapiens (Human), UniProt Q9UPP1). As to the kind of experiment: PHF8 in vitro enzyme inhibition assay (TR-FRET). The conditions noted are these: 3 nM PHF8, H3K9me1-biotin peptide.
Source text: as §1
The ability of test compounds to inhibit the activity of PHF8 was determined in 384-well plate format under the following reaction conditions: 3 nM PHF8, 200 nM H3K9me1-biotin labeled peptide (Anaspec cat #64358), 0.5 μM alpha-ketoglutaric acid in assay buffer of 50 mM HEPES, pH7.3, 0.005% Brij35, 0.5 mM TCEP, 0.2 mg/ml BSA, 50 μM sodium L-ascorbate, and 5 μM ammonium iron(II) sulfate. Reaction product was determined quantitatively by TR-FRET after the addition of detection reagent Phycolink Streptavidin-allophycocyanin (Prozyme) and Europium-anti-unmodified-histone H3 lysine 9/lysine27 (H3K9/K27) antibody (PerkinElmer) in the presence of 5 mM EDTA in LANCE detection buffer (PerkinElmer) at a final concentration of 25 nM and 0.5 nM, respectively.
The assay reaction was initiated by the following: 2 μl of the mixture of 600 nM H3K9me1-biotin labeled peptide and 1.5 μM alpha-ketoglutaric acid with 2 μl of 11-point serial diluted inhibitor in 3% DMSO were added to each well of the plate, followed by the addition of 2 μl of 9 nM PHF8 to initiate the reaction. The reaction mixture was incubated at room temperature for 15 minutes, and terminated by the addition of 6 μl of 5 mM EDTA in LANCE detection buffer containing 50 nM Phycolink Streptavidin-allophycocyanin and 1 nM Europium-anti-unmodified H3K9/K27 antibody. Plates were read by EnVision Multilabel Reader in TR-FRET mode (excitation at 320 nm, emission at 615 nm and 665 nm) after 1 hour incubation at room temperature. A ratio was calculated (665/615) for each well and fitted to determine inhibition constant (IC50).
as §4

FBXL10, sequence (Q8NHM5 1-650): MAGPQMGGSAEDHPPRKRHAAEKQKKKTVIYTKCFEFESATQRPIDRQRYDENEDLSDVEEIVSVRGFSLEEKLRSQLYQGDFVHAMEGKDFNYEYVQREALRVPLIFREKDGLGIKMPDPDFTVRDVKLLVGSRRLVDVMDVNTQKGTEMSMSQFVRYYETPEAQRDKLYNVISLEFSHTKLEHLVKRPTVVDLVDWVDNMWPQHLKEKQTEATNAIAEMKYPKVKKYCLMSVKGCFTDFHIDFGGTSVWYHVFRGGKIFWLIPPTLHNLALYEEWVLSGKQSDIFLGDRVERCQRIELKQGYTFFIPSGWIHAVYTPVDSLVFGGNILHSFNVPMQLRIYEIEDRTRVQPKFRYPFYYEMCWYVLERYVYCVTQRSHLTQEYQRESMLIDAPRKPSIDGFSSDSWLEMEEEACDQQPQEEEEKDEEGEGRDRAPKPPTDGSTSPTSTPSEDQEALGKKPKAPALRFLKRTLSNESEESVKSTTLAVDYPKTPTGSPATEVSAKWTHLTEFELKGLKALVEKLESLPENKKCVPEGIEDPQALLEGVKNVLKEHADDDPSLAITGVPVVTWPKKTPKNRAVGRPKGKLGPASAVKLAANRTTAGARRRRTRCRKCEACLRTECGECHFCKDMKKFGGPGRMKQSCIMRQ
PHF8, sequence (Q9UPP1 37-1060): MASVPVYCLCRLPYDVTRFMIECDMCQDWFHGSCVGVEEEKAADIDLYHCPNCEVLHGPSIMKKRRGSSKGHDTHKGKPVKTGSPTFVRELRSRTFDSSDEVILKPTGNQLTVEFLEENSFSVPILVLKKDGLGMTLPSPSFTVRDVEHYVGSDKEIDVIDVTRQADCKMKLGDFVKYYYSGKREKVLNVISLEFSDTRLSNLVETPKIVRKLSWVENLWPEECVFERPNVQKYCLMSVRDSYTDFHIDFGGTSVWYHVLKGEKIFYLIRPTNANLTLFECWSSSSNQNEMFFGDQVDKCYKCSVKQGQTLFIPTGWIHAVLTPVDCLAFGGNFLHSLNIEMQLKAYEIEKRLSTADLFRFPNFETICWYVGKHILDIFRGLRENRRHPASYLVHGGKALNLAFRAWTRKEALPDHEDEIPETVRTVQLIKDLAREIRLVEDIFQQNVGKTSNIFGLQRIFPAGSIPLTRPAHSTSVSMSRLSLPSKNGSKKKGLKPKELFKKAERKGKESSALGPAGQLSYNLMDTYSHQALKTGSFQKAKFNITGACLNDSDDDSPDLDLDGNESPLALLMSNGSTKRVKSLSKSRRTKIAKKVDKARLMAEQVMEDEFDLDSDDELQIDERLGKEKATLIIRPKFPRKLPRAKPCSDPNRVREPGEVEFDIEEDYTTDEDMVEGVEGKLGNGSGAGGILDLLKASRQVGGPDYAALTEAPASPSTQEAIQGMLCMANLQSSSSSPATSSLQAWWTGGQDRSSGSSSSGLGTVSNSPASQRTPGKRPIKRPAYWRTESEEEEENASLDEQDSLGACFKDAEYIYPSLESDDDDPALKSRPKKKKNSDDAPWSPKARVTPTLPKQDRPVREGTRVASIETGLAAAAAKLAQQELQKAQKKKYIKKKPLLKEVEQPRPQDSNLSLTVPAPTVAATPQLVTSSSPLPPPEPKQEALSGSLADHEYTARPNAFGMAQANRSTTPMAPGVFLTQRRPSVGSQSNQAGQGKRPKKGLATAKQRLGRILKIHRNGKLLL

As a reminder, the pIC50 is −log10 of the IC50, conventionally taken in molar units. A high value points to a low IC50. On to `Clc1ccccc1Cn1cnc(-c2cc(-c3c[nH]nn3)ccn2)c1` [Example 2, 2-[1-[(2-chlorophenyl)methyl]imidazol-4-yl]-4-(1H-triazol-4-yl)pyridine], for which the pIC50 at FBXL10 was at least 7.00; at FBXL11, 6.00 to 7.00; against PHF8, 6.00 to 7.00.

For `Cn1cnc(-c2cc(-c3c[nH]nn3)ccn2)c1-c1ccc(F)cc1OCC1CC1` [Example 4, 2-[5-[2-(cyclopropylmethoxy)-4-fluorophenyl]-1-methylimidazol-4-yl]-4-(1H-triazol-4-yl)pyridine], the pIC50 was at least 7.00 at FBXL10, at least 7.00 against FBXL11 and 5.00 to 6.00 against PHF8.

Consider `CC(c1ccccc1)n1cnc(-c2cc(-c3c[nH]nn3)ccn2)c1` (centres unmarked) [Example 5, 2-[1-(1-phenylethyl)imidazol-4-yl]-4-(1H-triazol-4-yl)pyridine], for which the pIC50 against FBXL10 is at least 7.00; against FBXL11, at least 7.00; on PHF8 it was 6.00 to 7.00.

For `Clc1ccccc1CCn1cnc(-c2cc(-c3c[nH]nn3)ccn2)c1` [Example 6, 2-[1-[2-(2-chlorophenyl)ethyl]imidazol-4-yl]-4-(1H-triazol-4-yl)pyridine], the negative-log IC50 (pIC50) at FBXL10, against FBXL11 and against PHF8 was at least 7.00 throughout.

In the case of `COc1ccccc1CCn1cnc(-c2cc(-c3c[nH]nn3)ccn2)c1` [Example 7, 2-[1-[2-(2-methoxyphenyl)ethyl]imidazol-4-yl]-4-(1H-triazol-4-yl)pyridine], the pIC50 at FBXL10 was at least 7.00; against FBXL11, at least 7.00; against PHF8, 6.00 to 7.00.

For `c1ccc2c(c1)CCCC2Cn1cnc(-c2cc(-c3c[nH]nn3)ccn2)c1` (centres unmarked) [Example 8, 2-[1-(1,2,3,4-tetrahydronaphthalen-1-ylmethyl)imidazol-4-yl]-4-(1H-triazol-4-yl)pyridine], the pIC50 at FBXL10 was at least 7.00; on FBXL11, at least 7.00; against PHF8, 6.00 to 7.00.

Regarding `CCOc1ccccc1CCn1cnc(-c2cc(-c3c[nH]nn3)ccn2)c1` [Example 9, 2-[1-[2-(2-ethoxyphenyl)ethyl]imidazol-4-yl]-4-(1H-triazol-4-yl)pyridine], the pIC50 was at least 7.00 at FBXL10, at least 7.00 at FBXL11 and 6.00 to 7.00 against PHF8.

For the compound `Clc1cccc(Cn2cnc(-c3cc(-c4c[nH]nn4)ccn3)c2)c1Cl` [Example 21, 2-[1-[(2,3-dichlorophenyl)methyl]imidazol-4-yl]-4-(1H-triazol-4-yl)pyridine], the pIC50 against FBXL10 was at least 7.00; against FBXL11 it was at least 7.00; against PHF8, 6.00 to 7.00.

`FC(F)(F)c1cccc(Cn2cnc(-c3cc(-c4c[nH]nn4)ccn3)c2)c1Cl` [Example 22, 2-[1-[[2-chloro-3-(trifluoromethyl)phenyl]methyl]imidazol-4-yl]-4-(1H-triazol-4-yl)pyridine]: the values for the pIC50 against FBXL10, at FBXL11 and against PHF8 were at least 7.00, at least 7.00 and 6.00 to 7.00, respectively.

Consider `c1ccc2c(CCn3cnc(-c4cc(-c5c[nH]nn5)ccn4)c3)cccc2c1` [Example 23, 2-[1-(2-naphthalen-1-ylethyl)imidazol-4-yl]-4-(1H-triazol-4-yl)pyridine], for which the pIC50 against FBXL10 was at least 7.00; at FBXL11 it was at least 7.00; against PHF8, 6.00 to 7.00.

For `CCOc1cc(-c2c(-c3cc(-c4c[nH]nn4)ccn3)ncn2C)ccc1F` [Example 25, 2-[5-(3-ethoxy-4-fluorophenyl)-1-methylimidazol-4-yl]-4-(1H-triazol-4-yl)pyridine], the pIC50 on FBXL10 is at least 7.00; against FBXL11, 6.00 to 7.00; against PHF8, 5.00 to 6.00.

As for `Ic1[nH]nnc1-c1ccnc(-c2cn(CCc3cccc4ccccc34)cn2)c1` [Example 38, 4-(5-iodo-1H-triazol-4-yl)-2-[1-(2-naphthalen-1-ylethyl)imidazol-4-yl]pyridine], the pIC50 is at least 7.00 against FBXL10 and under 5.00 on PHF8.

Regarding `Cn1cnc(-c2cc(-c3nn[nH]c3C#N)ccn2)c1-c1ccc(F)cc1OCC1CC1` [Example 39, 4-[2-[5-[2-(cyclopropylmethoxy)-4-fluorophenyl]-1-methylimidazol-4-yl]pyridin-4-yl]-1H-triazole-5-carbonitrile], the pIC50 is at least 7.00 at FBXL10 and 5.00 to 6.00 on PHF8.

As to `Cn1cnc(-c2cc(-c3nn[nH]c3Cl)ccn2)c1-c1ccc(F)cc1OCC1CC1` [Example 40, 4-(5-chloro-1H-triazol-4-yl)-2-[5-[2-(cyclopropylmethoxy)-4-fluorophenyl]-1-methylimidazol-4-yl]pyridine], the pIC50 on FBXL10 is at least 7.00; at PHF8, under 5.00.

Turning to `Cn1cnc(-c2cc(-c3nn[nH]c3F)ccn2)c1-c1ccc(F)cc1OCC1CC1` [Example 41, 2-[5-[2-(cyclopropylmethoxy)-4-fluorophenyl]-1-methylimidazol-4-yl]-4-(5-fluoro-1H-triazol-4-yl)pyridine], the pIC50 against FBXL10 is at least 7.00; on PHF8, 5.00 to 6.00.

The values above are taken from patent US10071984B2, “Histone demethylase inhibitors” (Celgene Quanticel Research, Inc., priority 2014, dated 2018).
